In ChEMBL document CHEMBL1137595, “Identification and optimisation of a series of substituted 5-(1H-pyrazol-3-yl)-thiophene-2-hydroxamic acids as potent histone deacetylase (HDAC) inhibitors” (Bioorg Med Chem Lett, 2007):

Experiment: Oral bioavailability after oral dosing at 5 mg kg-1
Assay type: ADME, organism-based
Details: mouse, in vivo

O=C(NO)c1ccc(-c2ccn(CCNCc3ccc4c(c3)OCO4)n2)s1
bioavailability: 10%
